We go through six molecules from patent US8685997B2, “Camptothecin derivatives and their use” (Shanghai Institute of Materia Medica, Chinese Academy of …, priority 2006, dated 2014).

The subject of one data set is A549. The data set is described as follows: SRB protein staining tumor cell proliferation assay. The following applies: read-out: IC50(mean ± SD). The format is cell-based. The source says: (§1) 1. Sulfonyl rhodamine B (SRB) protein staining assays were used to detect the inhibition of tumor cell proliferation of the compound.
On the technique in general: Sulforhodamine B stains cellular protein and so reports cell mass.

A further data set deals with BEL-7402. The data set is described as above. In kind it is cell-based. Particulars: read-out: IC50(mean ± SD).
Excerpt: as §1

The test system of the next data set is HCT-15. Described as above. The format is cell-based. The following applies: read-out: IC50(mean ± SD).
Excerpt: as §1

The subject of another data set is HL-60. Described as above. The format is cell-based. Particulars: read-out: IC50(mean ± SD).
Excerpt: as §1

For a further data set, the system named is HO-8910. The data set is described as above. In kind it is cell-based. Particulars: read-out: IC50(mean ± SD).
Excerpt: as §1

The subject of another data set is MCF-7. The description is as above. The format is cell-based.
Excerpt: as §1

The test system of the next data set is MDA-MB-435. Described as above. In kind it is cell-based. Particulars: read-out: IC50(mean ± SD).
Excerpt: as §1

In a further data set the test system is MDA-MB-468. The data set is described as above. The format is cell-based. The following applies: read-out: IC50(mean ± SD).
Excerpt: as §1

A further data set deals with MKN-28. Described as above. The following applies: read-out: IC50(mean ± SD). In kind it is cell-based.
Excerpt: as §1

The next data set concerns NCI-H23. The description is as above. The format is cell-based. Particulars: read-out: IC50(mean ± SD).
Excerpt: as §1

A further data set deals with SGC-7901. Described as above. In kind it is cell-based. Particulars: read-out: IC50(mean ± SD).
Excerpt: as §1

The test system of a further data set is SMMC-7721. The description is as above. The following applies: read-out: IC50(mean ± SD). In kind it is cell-based.
Excerpt: as §1

For the next data set, the system named is HCT-116. Described as above. The format is cell-based, human. Particulars: read-out: IC50(mean ± SD).
Excerpt: as §1

The subject of data set [1] is thirteen tumor cell lines. The data set is described as follows: SRB proliferation assay, panel of thirteen tumor cell lines. In kind it is cell-based. Particulars: mean over thirteen tumor cell lines.
Excerpt: as §1

Data set [2] deals with human lung cancer SPC-A4 xenografts. Briefly: Human lung cancer SPC-A4 xenografts in nude mice. The following applies: for Body weight (g) At the beginning / Body weight (g) At the end / RTV / T/C (%) / TV (mm^3) d0 / TV (mm^3) d20: q3w × 3, i.v.
For data set [3], the system named is human rectal cancer HCT-116 xenografts. The data set is described as follows: Human rectal cancer HCT-116 xenografts in nude mice. The following applies: for Body weight (g) At the beginning / Body weight (g) At the end / RTV / T/C (%) / TV (mm^3) d0 / TV (mm^3) d21: q3w × 3, i.v. (In general: A xenograft is tissue or cells of one species grown in another, often human tumour cells in immunodeficient mice.)

In the next data set the test system is K562 cell line. The data set is described as follows: Anti-multidrug resistance evaluation, parent cell line. The format is cell-based. The following applies: Homo sapiens; K562 cells. The source says: (§2) 2. The multidrug resistance cell line K562/A02 and its parent K562 cell line were used to evaluate the anti-multidrug resistance of the CPT-4 active metabolite.

In data set [4] the test system is multidrug resistance cell line K562/A02. The data set is described as follows: Anti-multidrug resistance evaluation, multidrug resistance cell line. The format is cell-based.
Excerpt: as §2

[5] abbreviates: intravenously, three times per week.

Like-named read-outs stand apart in the source and are kept apart here.

The term IC50 denotes the point on the concentration scale where inhibition reaches its midpoint. Consider `CC[C@@]1(O)C(=O)OCc2c1cc1n(c2=O)Cc2cc3c([N+](=O)[O-])cccc3nc2-1` [9NC, 9-nitrocamptothecin], for which the concentration for half-maximal inhibition (IC50) with A549 was 31.9 ± 3.72 nM; in the data set with BEL-7402 (BEL-7402) it was 58.8 ± 10.7 nM; with HCT-15, 9.59 ± 0.48 nM; in the data set on HL-60 it was 20.6 ± 2.56 nM; in the data set with HO-8910 it was 227 ± 40.8 nM; with MCF-7 (read-out: IC50(mean ± SD)) it was 62.6 ± 19.8 nM. For the same molecule, the IC50 amounted to 18.5 ± 6.14 nM in the data set with MDA-MB-435; 64.9 ± 29.6 nM in the data set with MDA-MB-468; 116 ± 6.48 nM in the data set on MKN-28; 70.3 ± 14.6 nM in the data set with NCI-H23; 98 ± 6.87 nM in the data set with SGC-7901; 1380 ± 25 nM in the data set with SMMC-7721. The half-inhibitory concentration (IC50) stood at 13.7 ± 1.4 nM in the data set with HCT-116 and 167 nM in data set [1].

`C=CCc1c(OC(=O)N2CCC(N3CCCCC3)CC2)ccc2nc3c(cc12)Cn1c-3cc2c(c1=O)COC(=O)[C@]2(O)CC` [CPT-4, 10-((4′-piperidylpiperidine)carbonyloxy)-9-allylcamptothecin]: in [2] (3.75 mg/kg), the “Body weight (g) At the beginning” value is 17.8 g, the “Body weight (g) At the end” value was determined as 19.3 g, the RTV was found to be 19 ± 5.5 and the “T/C (%)” value amounted to 41.4%. For the same molecule, in data set [2] (3.75 mg/kg), the “TV (mm^3) d0” value came to 104 ± 22 mm^3 and the “TV (mm^3) d20” value is given as 1931 ± 533 mm^3. In [2] (7.5 mg/kg), the “Body weight (g) At the beginning” value stood at 17.5 g, the “Body weight (g) At the end” value was determined as 19.3 g, the RTV came to 14 ± 5.5 and the “T/C (%)” value was determined as 31.4%. Further, in data set [2] (7.5 mg/kg), the “TV (mm^3) d0” value was determined as 108 ± 61 mm^3 and the “TV (mm^3) d20” value amounted to 1153 ± 172 mm^3. In data set [2] (15 mg/kg), the “Body weight (g) At the beginning” value is reported as 17.3 g, the “Body weight (g) At the end” value is reported as 17.5 g, the RTV amounted to 0.4 ± 0.7 and the “T/C (%)” value amounted to 0.88%. Also, in data set [2] (15 mg/kg), the “TV (mm^3) d0” value is recorded as 106 ± 28 mm^3 and the “TV (mm^3) d20” value stood at 55 ± 99 mm^3. For the same molecule, in [2] (setting [5]), the “inhibition of growth of tumor xenografts” value is on record as “can significantly inhibit the growth of tumor xenografts” and the “xenograft growth inhibition compared with CPT-11” value is on record as “equivalent to that of CPT-11”. In [3] (3.75 mg/kg), the “Body weight (g) At the beginning” value is recorded as 20.2 g, the “Body weight (g) At the end” value turned out to be 17.0 g, the RTV is 8.4 ± 2.0 and the “T/C (%)” value was determined as 18.9%. Further, in [3] (3.75 mg/kg), the “TV (mm^3) d0” value turned out to be 92 ± 27 mm^3 and the “TV (mm^3) d21” value was 720 ± 75 mm^3. For the same molecule, in data set [3] (7.5 mg/kg), the “Body weight (g) At the beginning” value came to 19.5 g, the “Body weight (g) At the end” value worked out at 17.2 g, the RTV is recorded as 3.8 ± 2.2 and the “T/C (%)” value is recorded as 8.31%. Also, in data set [3] (7.5 mg/kg), the “TV (mm^3) d0” value was 94 ± 30 mm^3 and the “TV (mm^3) d21” value came to 289 ± 108 mm^3. Also, in [3] (15 mg/kg), the “Body weight (g) At the beginning” value was determined as 20.3 g, the “Body weight (g) At the end” value worked out at 17.8 g, the RTV turned out to be 1.8 ± 0.5 and the “T/C (%)” value worked out at 3.99%. Moreover, in data set [3] (15 mg/kg), the “TV (mm^3) d0” value amounted to 100 ± 20 mm^3 and the “TV (mm^3) d21” value is 172 ± 51 mm^3. Besides, in [3] (setting [5]), the “inhibition of growth of tumor xenografts” value is on record as “can significantly inhibit the growth of tumor xenografts” and the “xenograft growth inhibition compared with CPT-11” value was “equivalent to that of CPT-11”.

On to `CCc1c2c(nc3ccc(OC(=O)N4CCC(N5CCCCC5)CC4)cc13)-c1cc3c(c(=O)n1C2)COC(=O)[C@]3(O)CC` [CPT-11, Irinotecan], for which, in [2] (15 mg/kg), the “Body weight (g) At the beginning” value is reported as 18.2 g, the “Body weight (g) At the end” value is on record as 18.7 g, the RTV was found to be 0.5 ± 0.5 and the “TV (mm^3) d0” value amounted to 121 ± 34 mm^3. In [2] (15 mg/kg), the “TV (mm^3) d20” value turned out to be 55 ± 39 mm^3. Further, in [3] (15 mg/kg), the “Body weight (g) At the end” value was determined as 18.3 g, the RTV is given as 1.9 ± 1.1, the “TV (mm^3) d0” value is 101 ± 60 mm^3 and the “TV (mm^3) d21” value was determined as 171 ± 86 mm^3.

As for `CCc1c2c(nc3ccc(O)cc13)-c1cc3c(c(=O)n1C2)COC(=O)[C@]3(O)CC` [SN38], the IC50 is 5.9 ± 1.61 nM with A549; 136 ± 34.7 nM in the data set on BEL-7402 (BEL-7402); 6.13 ± 4.07 nM in the data set on HCT-15; 6.7 ± 1.26 nM in the data set with HL-60; 1120 ± 171 nM in the data set on HO-8910; 73 ± 15.6 nM with MCF-7 (read-out: IC50(mean ± SD)). Further, the half-maximal inhibitory concentration (IC50) in the data set with MDA-MB-435 was 3.42 ± 1.53 nM; with MDA-MB-468, 95.6 ± 36.9 nM; with MKN-28, 303 ± 56 nM; in the data set with NCI-H23 it was 234 ± 116 nM; with SGC-7901, 465 ± 75.3 nM; in the data set with SMMC-7721 it was 379 ± 66.4 nM. Further, the half-maximal inhibitory concentration (IC50) in the data set on HCT-116 is 12.9 ± 5.4 nM; in data set [1], 218 nM.

For the molecule `CC[C@@]1(O)C(=O)OCc2c1cc1n(c2=O)Cc2cc3c(CN(C)C)c(O)ccc3nc2-1` [TPT, Topotecan], the IC50 in the data set with A549 (Homo sapiens) worked out at 28.1 ± 6.8 nM; with BEL-7402 (Homo sapiens, Bel-7402), 420 ± 79.7 nM; in the data set on HCT-15 (Homo sapiens), 14.4 ± 4.41 nM; in the data set on HL-60 (Homo sapiens), 23.3 ± 1.32 nM; in the data set with HO-8910, 1380 ± 44.4 nM; in the data set on MCF-7 (Homo sapiens, MCF7, read-out: IC50(mean ± SD)), 387 ± 45.6 nM. The IC50 came out at 49.7 ± 6.05 nM in the data set with MDA-MB-435 (Homo sapiens); 176 ± 97.5 nM in the data set with MDA-MB-468 (Homo sapiens); 412 ± 188 nM in the data set on MKN-28 (Homo sapiens); 122 ± 36.3 nM in the data set with NCI-H23 (Homo sapiens); 489 ± 96.5 nM in the data set with SGC-7901 (Homo sapiens); 1380 ± 172 nM in the data set on SMMC-7721 (Homo sapiens). Further, the figures for the IC50 (in the data set with HCT-116 (Homo sapiens); in [1]) were 38 ± 2.19 nM and 379 nM, respectively.

For `COc1cccc2c1C(=O)c1c(O)c3c(c(O)c1C2=O)C[C@@](O)(C(=O)CO)C[C@@H]3O[C@H]1C[C@H](N)[C@H](O)[C@H](C)O1` [adriamycin], the IC50 in the data set with K562 cell line stood at 493 nM; in [4] (Homo sapiens, K562/A02 cells), 69100 nM. Further, in data set [4] (K562/A02 versus K562), the “Resistance Factor (RF)” value amounted to 140.24.
